Reference: publication PMC9784874, “Inhibitors of HIV-1 and Cathepsin L Proteases Identified from the Insect Gall of Hypericum kouytchense” (Pharmaceuticals, 2022)
Where two headings read alike, the source gives them in different places.

Legend:
[1] = test system: HIV replication in H9 lymphocytes; design: method as in PMID 15987189; conditions: cited from earlier work
Cat L PR = Cat L PR (Homo sapiens, UniProt P07711); assay: Fluorimetric cathepsin L protease inhibition assay; type: biochemical; conditions: read-out: Cat L PR Inhi% at 100.0 µg/mL
Cat L PR, sequence (P07711 114-333): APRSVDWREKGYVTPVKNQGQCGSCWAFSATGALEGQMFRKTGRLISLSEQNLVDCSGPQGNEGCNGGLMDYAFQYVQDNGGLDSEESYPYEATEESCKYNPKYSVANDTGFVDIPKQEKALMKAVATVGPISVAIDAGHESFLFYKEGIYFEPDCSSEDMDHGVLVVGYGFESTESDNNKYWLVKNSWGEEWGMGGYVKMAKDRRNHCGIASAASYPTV
Procedure: (§1) The inhibitory activities against HIV-1, Cat L and Renin PRs were assayed by fluorimetric methods using our previously published protocols.

HIV-1 PR = target: T1, HIV-1 PR (Human immunodeficiency virus type 1 group M subtype B, UniProt P04585); assay: Fluorimetric HIV-1 protease inhibition assay; type: biochemical
T1 construct: 10.0, 4.0, 3.2 and 17.0 µg/mL against HIV-1 protease
Procedure: as §1

human renin = target: T2, human renin (Homo sapiens, UniProt P00797); assay: Fluorimetric renin protease inhibition assay; type: biochemical; conditions: extracts, n = 3
T2 sequence (P00797 67-406): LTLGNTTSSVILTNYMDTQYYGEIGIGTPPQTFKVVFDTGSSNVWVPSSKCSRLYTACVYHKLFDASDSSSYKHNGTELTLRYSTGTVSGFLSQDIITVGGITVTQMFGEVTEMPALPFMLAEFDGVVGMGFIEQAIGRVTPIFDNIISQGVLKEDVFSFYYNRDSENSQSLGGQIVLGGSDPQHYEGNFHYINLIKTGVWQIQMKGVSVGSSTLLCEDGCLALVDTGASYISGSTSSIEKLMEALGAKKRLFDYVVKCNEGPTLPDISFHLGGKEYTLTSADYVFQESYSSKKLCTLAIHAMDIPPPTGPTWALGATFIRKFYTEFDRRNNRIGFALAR
Procedure: as §1

[2] = active compounds, n = 3, read-out: HIV-1 PR IC50 (converted)

| IC50 Renin PR (human renin) [µg/mL] | Molecule | therapeutic index (TI) [1] | inhibition at 100 µg/mL (Cat L PR; 100.0 µg/mL, n = 3) [%] | HIV-1 PR Inhi% at 1000.0 µg/mL (HIV-1 PR; n = 3) [%] | IC50 (HIV-1 PR; [2]) [µM] | IC50 (HIV-1 PR) [µM] | inhibition at 100 µg/mL (Cat L PR) [%] |
| --- | --- | --- | --- | --- | --- | --- | --- |
| – | C=C[C@@]1(C)COC(=O)[C@]12O[C@]1(c3ccccc3)[C@H](C2=O)[C@H]2[C@H]([C@H](C)CCC=C(C)C)CC=C(C)[C@H]21 [Biyouyanagin A] | higher than 31.3 | – | – | – | – | – |
| – | Oc1cc(O)c2c(c1)O[C@H](c1ccc(O)c(O)c1)[C@H](O)C2 [Epicatechin] | – | -17.7 ± 2.35 | 66.0 ± 3.79 | 2760 | – | – |
| – | O=C1C[C@@H](c2ccc(O)c(O)c2)Oc2cc(O)cc(O)c21 [Eriodictyol, Eriodicytiol] | – | 14.3 ± 2.32 | 100.0 ± 4.98 | – | 659 | – |
| – | Cc1cc(O)c2c(=O)c3c(O)cc(O)c4c5c(O)cc(O)c6c(=O)c7c(O)cc(C)c8c1c2c(c34)c(c78)c65 [Hypericin] | – | 79.4 ± 2.02 | 100.0 ± 7.87 | – | 3.57 | – |
| – | O=c1c(O[C@@H]2O[C@H](CO)[C@H](O)[C@H](O)[C@H]2O)c(-c2ccc(O)c(O)c2)oc2cc(O)cc(O)c12 [Hyperoside] | – | 11.8 ± 2.56 | 72.6 ± 1.40 | – | 84 | – |
| – | O=C(/C=C/c1ccc(O)cc1)c1c(O)cc(O)cc1O [Naringenin chalcone] | – | 22.2 ± 6.77 | 100.0 ± 1.96 | 121 | – | – |
| – | O=c1c(O)c(-c2ccc(O)c(O)c2)oc2cc(O)cc(O)c12 [Quercetin] | – | -3.67 ± 6.59 | 50.3 ± 1.40 | – | – | – |
| – | C[C@@H]1O[C@@H](Oc2c(-c3ccc(O)c(O)c3)oc3cc(O)cc(O)c3c2=O)[C@H](O)[C@H](O)[C@H]1O [Quercitrin] | – | – | 94.4 ± 7.86 | 44.6 | – | 16.3 ± 3.24 |
| – | C[C@@H]1O[C@@H](OC[C@H]2O[C@@H](Oc3c(-c4ccc(O)c(O)c4)oc4cc(O)cc(O)c4c3=O)[C@H](O)[C@@H](O)[C@@H]2O)[C@H](O)[C@H](O)[C@H]1O [Rutin] | – | -4.81 ± 3.8 | 24.8 ± 3.85 | – | – | – |
| – | C[C@@H]1O[C@@H](Oc2cc(O)c3c(c2)O[C@H](c2ccc(O)c(O)c2)[C@@H](O)C3=O)[C@H](O)[C@H](O)[C@H]1O [Taxifolin-7-O-rhamnoside] | – | 18.1 ± 0.95 | 68.4 ± 5.45 | 1220 | – | – |
| 0.9 | Ac–HPFV–(Sta)–LF–NH2 [Renin inhibitor] | – | – | – | – | – | – |
